Laboratory results from patent US11142522B2, “Compounds, compositions and methods for cancer treatment” (THE BROAD INSTITUTE, INC., priority 2017, dated 2021).
“And” between values parts separate entries of the source, which are not always exact repeats. Identical values can stand only once. Marks after values point to notes of the source that are not given here.

Columns and labels:
[1] = In vivo pharmacokinetics in dogs; settings: female, Beagle, dog, plasma, iv, after i.v., read-out: clearance in dogs (CLp) (converted)
Experimental: For in vivo pharmacokinetic experiments test compounds were administered to non-rodents (e.g. female Beagle dogs) intravenously at doses of 0.1 to 1 mg/kg and intragastral at doses of 0.3 to 3 mg/kg formulated as solutions using solubilizers such as PEG400 in well-tolerated amounts and are usually given as short term infusion (15 min).
Blood samples were taken e.g. at 2 min, 8 min, 15 min, 30 min, 45 min, 1 h, 2 h, 4 h, 6 h, 8 h and 24 h after dosing from the vena saphena. Depending on the expected half-life additional samples were taken at later time points (e.g. 48 h, 72 h).
For pharmacokinetics after intragastral administration test compounds were given intragastral to fasted non-rodents (e.g. dogs). Blood samples were taken e.g. at 5 min, 15 min, 30 min, 45 min, 1 h, 2 h, 4 h, 6 h, 8 h and 24 h after dosing. Depending on the expected half-life additional samples were taken at later time points (e.g. 48 h, 72 h). Blood was collected into Lithium-Heparin tubes (Monovetten®, Sarstedt) and centrifuged for 15 min at 3000 rpm. […] PK parameters were calculated by non-compartmental analysis using a PK calculation software. […]
PK parameters calculated from concentration time profiles after i.g.: Cmax: Maximal plasma concentration (in mg/L); Cmaxnorm: Cmax divided by the administered dose (in kg/L); Tmax: Time point at which Cmax was observed (in h). […]

[2] = In vitro metabolic stability in cryopreserved human hepatocytes; type: in vitro ADME; settings: 1 μM test compound
Experimental: Cryopreserved Hepatocytes (e.g. purchased from Celsis InVitroTechnologies) were briefly thawed, washed with 45 mL pre-warmed in in vitro GRO HT medium and centrifuged for 5 min at 50×g. The cell pellet was resuspended in 5 ml of Krebs-Henseleit […] (KHB). Cell viability was determined by trypan blue exclusion.
For the metabolic stability assay liver cells were distributed in WME containing 5% FCS to glass vials at a density of 1.0×10^6 vital cells/ml. The test compound was added to a final concentration of 1 μM. During incubation, the hepatocyte suspensions were continuously shaken at 580 rpm and aliquots were taken at 2, 8, 16, 30, 45 and 90 min, to which equal volumes of cold methanol were immediately added. Samples were frozen at −20° C. over night, after subsequently centrifuged for 15 minutes at 3000 rpm and the supernatant was analyzed with an Agilent 1290 HPLC-system with LCMS/MS detection.
The half-life of a test compound was determined from the concentration-time plot. From the half-life the intrinsic clearances were calculated. Together with the additional parameters liver blood flow, amount of liver cells in vivo and in vitro. The hepatic in vivo blood clearance (CL) and the maximal oral bioavailability (Fmax) was calculated.

HeLa cells = test: HeLa cell viability assay (compound sensitivity testing); type: cell-based; settings: Homo sapiens, incubated for 48 hours
Experimental: 1000 HeLa (DMEM), cells were plated in a 384-well plate in 40 μl of corresponding growth media supplemented with 10% Fetal Bovine Serum. 24 hours after plating, indicated compounds were added at indicated concentrations and incubated for 48 hours. Cell viability was assessed as described in Compound library screening in NCI-H1734 and A549 cell lines.

IGR-37 xenograft = test: In vivo xenotransplantation model; design: species or system mice; settings: IGR-37, Melanoma, 40 mg/kg 2QD p.o.
Experimental: (§1) The anti-tumor activity of Compound 1 was examined in murine xenotransplantation models of human cancer. For this purpose, mice were implanted subcutaneously with tumor cells. At a mean tumor size of 20-40 mm^2 animals were randomized into treatment and control groups (at least n=10 animals/group) and treatment started with vehicle only or Compound 1 (formulation: 90% PEG400/10% Ethanol; application route: per os (“p.o.”), orally). The oral application volume was 10 ml/kg. In the case of twice daily treatments, the time interval between two applications per day was 6-7h. The tumor size and the body weight were determined at least weekly. The tumor area was detected by means of an electronic caliper [length (mm)×width (mm)]. The experiment was ended when the tumors of the vehicle control reached the pre-determined ethical endpoint based on German and European animal welfare regulations. In vivo anti-tumor efficacy is presented as T/C ratio at study end (Treatment/Control; mean tumor area or weight of treatment group/mean tumor area or weight of control group) in Table 7. A compound having a T/C below 0.5 is defined as active (i.e., effective). Statistical analysis was assessed using SigmaStat software. A one-way analysis of variance was performed and differences to the control were compared by a pair-wise comparison procedure (Dunn's method).

SK-MEL3 xenograft = test: In vivo xenotransplantation model; design: species or system mice; settings: SK-MEL3, Melanoma, 40 mg/kg 2QD p.o.
Experimental: as §1

A2058 xenograft = test: In vivo xenotransplantation model; design: species or system mice; settings: A2058, Melanoma, 40 mg/kg 2QD p.o.
Experimental: as §1

HeLa xenograft = test: In vivo xenotransplantation model; design: species or system mice; settings: Cervical cancer, 10 mg/kg 2QD p.o., study end
Experimental: as §1

[3] = tested on: xenograft models of human tumors; test: Murine xenotransplantation models of human cancer (overall); type: in vivo, mice; settings: monotherapy, p.o., different xenograft models
Experimental: as §1

human full length PDE3A = target: T1, human full length PDE3A (Homo sapiens, UniProt Q14432); test: PDE3A enzyme inhibition, 3H-cAMP scintillation proximity assay; type: biochemical
T1 construct: Sf9 cells overexpressing human full length PDE3A; purchased SB Drug Discovery, UK; host or cells: Sf9 insect cells (cell extract, not purified)
Experimental: (§2) The commercially available ^3H-cAMP Scintillation Proximity Assay (SPA, Perkin Elmer) system was used for enzyme inhibition studies. For the determination of the in vitro effect of test substances on the PDE3A reactions 2 μl of the respective test compound solution in DMSO (serial dilutions) were placed in wells of microtiter plates (Isoplate-96/200W; Perkin Elmer). 50 μl of a dilution of PDE3A cell extract from Sf9 cells overexpressing human full length PDE3A (SB Drug Discovery, UK) in buffer A (50 mM Tris/HCl pH 7.5, 8.3 mM MgCl2, 1.7 mM EDTA, 0.2% BSA) was added. The dilution of the PDE3A cell extract was chosen such that the reaction kinetics was linear and less than 70% of the substrate was consumed (typical dilution 1:5000). The reaction was started by addition of 50 μl (0.025 μCi) of 1:2000 in buffer A w/o BSA diluted substrate [8-^3H] adenosine 3′, 5′-cyclic phosphate (1 μCi/μl; Perkin Elmer). After incubation at room temperature for 60 min, the reaction was stopped by addition of 25 μl of a suspension containing 18 mg/ml yttrium scintillation proximity beads (Perkin Elmer) in water. The microtiter plates were sealed and measured in a Microbeta scintillation counter (PerkinElmer Wallac). IC50 values were determined from sigmoidal curves by plotting percentage PDE3A activity vs log compound concentration.

PDE3A-CRISPR A2058 cells = test: Dose response in A2058 cells with CRISPR knockout of PDE3A; type: cell-based, human
Experimental: (§3) The antiproliferative activity of the compounds of the general formula (I) was examined in vitro in human cancer cells. For this purpose, 1000 cells, including HuT78 cells, 500 HeLa cells, or 500 A2058 cells, were plated in 384-well plates with appropriate growth medium and incubated at 37° C. overnight. After 24 h, the cells on the test plate were treated with the compounds of the general formula (I) as and incubated at 37° C. for 72 h. The compounds were added to the cells by means of an HP D300 digital dispenser in a 10 (or more)—step dilution series. As control, the cells were treated with vehicle (DMSO at 0.3% final concentration). After 72 h, the cells were treated with 20 µl/well of 50% CTG solution in PBS (Promega Cell Titer Glo (catalogue # G755B and G756B)) and incubated at room temperature for 10 min, and luminescence was measured by means of a VICTOR V (Perkin Elmer), in order to determine cell viability at the end of treatment. The percentage effect on cell growth and the IC50 derived therefrom were determined for each test substance using the values from untreated wells (=percent viability). The IC50 values were calculated using a 4-parameter fit.
CRISPR target sites were identified using the MIT CRISPR Design Tool (online MIT CRISPR design portal). For cloning of sgRNAs, forward and reverse oligonucleotides (oligos) were annealed, phosphorylated and ligated into BsmBI-digested pXPR_BRD001. Oligo sequences are as follows:
To produce lentivirus, 293T cells were co-transfected with pXPR_BRD001, psPAX2 and pMD2.G using calcium phosphate. Infected A2058 and HeLa cells were selected with 2 μg/ml of puromycin.

HeLa = test: Cell proliferation measurement (Cell Titer Glo, 72 h); type: cell-based; settings: Homo sapiens, Cervical Cancer
Experimental: as §3

A549 = test: as above; type: cell-based; settings: Homo sapiens, A549, Lung adenocarcinoma, printed as (inactive)
Experimental: as §3

IGR37 = test: as above; type: cell-based; settings: Homo sapiens, IGR-37, IGR37, Melanoma
Experimental: as §3

SKMEL3 = test: as above; type: cell-based; settings: Homo sapiens, SK-MEL3, SKMEL3, Melanoma
Experimental: as §3

human full length PDE3B = target: T2, human full length PDE3B (Homo sapiens, UniProt Q13370); test: PDE3B enzyme inhibition, 3H-cAMP scintillation proximity assay; type: biochemical
T2 construct: Sf9 cells overexpressing human full length PDE3B; purchased SB Drug Discovery, UK; host or cells: Sf9 insect cells (cell extract, not purified)
Experimental: as §2, with “PDE3B” for “PDE3A”, “1:6000).” for “1:5000).”

T1 sequence (Q14432 whole entry): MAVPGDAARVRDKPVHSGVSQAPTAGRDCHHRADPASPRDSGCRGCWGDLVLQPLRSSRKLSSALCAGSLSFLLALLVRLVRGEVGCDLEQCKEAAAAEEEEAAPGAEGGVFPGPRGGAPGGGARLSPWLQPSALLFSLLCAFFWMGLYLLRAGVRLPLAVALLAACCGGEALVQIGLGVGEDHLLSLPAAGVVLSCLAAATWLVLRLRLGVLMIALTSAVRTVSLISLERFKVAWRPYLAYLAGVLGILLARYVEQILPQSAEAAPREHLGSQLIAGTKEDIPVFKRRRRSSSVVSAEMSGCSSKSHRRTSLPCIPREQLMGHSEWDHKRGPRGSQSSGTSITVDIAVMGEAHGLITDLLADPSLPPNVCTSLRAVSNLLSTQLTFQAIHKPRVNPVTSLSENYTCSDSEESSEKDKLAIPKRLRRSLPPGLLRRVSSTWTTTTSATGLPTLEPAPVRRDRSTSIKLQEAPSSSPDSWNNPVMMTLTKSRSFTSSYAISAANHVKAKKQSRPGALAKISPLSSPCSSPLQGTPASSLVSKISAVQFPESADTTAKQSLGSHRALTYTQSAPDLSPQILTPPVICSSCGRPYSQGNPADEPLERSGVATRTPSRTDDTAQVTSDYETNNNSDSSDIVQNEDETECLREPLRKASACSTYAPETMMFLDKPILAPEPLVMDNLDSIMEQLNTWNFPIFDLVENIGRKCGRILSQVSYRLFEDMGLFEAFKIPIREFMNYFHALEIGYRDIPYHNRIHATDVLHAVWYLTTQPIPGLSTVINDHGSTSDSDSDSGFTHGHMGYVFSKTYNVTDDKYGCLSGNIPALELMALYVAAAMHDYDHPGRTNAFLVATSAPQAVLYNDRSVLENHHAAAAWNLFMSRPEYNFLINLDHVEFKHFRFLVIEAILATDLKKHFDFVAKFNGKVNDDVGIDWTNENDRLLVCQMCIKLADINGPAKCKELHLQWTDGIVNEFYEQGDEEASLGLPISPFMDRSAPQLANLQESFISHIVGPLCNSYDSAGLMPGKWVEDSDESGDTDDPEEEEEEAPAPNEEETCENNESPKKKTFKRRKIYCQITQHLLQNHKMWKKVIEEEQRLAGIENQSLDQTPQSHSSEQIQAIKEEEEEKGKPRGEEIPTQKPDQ
T2 sequence (Q13370 whole entry): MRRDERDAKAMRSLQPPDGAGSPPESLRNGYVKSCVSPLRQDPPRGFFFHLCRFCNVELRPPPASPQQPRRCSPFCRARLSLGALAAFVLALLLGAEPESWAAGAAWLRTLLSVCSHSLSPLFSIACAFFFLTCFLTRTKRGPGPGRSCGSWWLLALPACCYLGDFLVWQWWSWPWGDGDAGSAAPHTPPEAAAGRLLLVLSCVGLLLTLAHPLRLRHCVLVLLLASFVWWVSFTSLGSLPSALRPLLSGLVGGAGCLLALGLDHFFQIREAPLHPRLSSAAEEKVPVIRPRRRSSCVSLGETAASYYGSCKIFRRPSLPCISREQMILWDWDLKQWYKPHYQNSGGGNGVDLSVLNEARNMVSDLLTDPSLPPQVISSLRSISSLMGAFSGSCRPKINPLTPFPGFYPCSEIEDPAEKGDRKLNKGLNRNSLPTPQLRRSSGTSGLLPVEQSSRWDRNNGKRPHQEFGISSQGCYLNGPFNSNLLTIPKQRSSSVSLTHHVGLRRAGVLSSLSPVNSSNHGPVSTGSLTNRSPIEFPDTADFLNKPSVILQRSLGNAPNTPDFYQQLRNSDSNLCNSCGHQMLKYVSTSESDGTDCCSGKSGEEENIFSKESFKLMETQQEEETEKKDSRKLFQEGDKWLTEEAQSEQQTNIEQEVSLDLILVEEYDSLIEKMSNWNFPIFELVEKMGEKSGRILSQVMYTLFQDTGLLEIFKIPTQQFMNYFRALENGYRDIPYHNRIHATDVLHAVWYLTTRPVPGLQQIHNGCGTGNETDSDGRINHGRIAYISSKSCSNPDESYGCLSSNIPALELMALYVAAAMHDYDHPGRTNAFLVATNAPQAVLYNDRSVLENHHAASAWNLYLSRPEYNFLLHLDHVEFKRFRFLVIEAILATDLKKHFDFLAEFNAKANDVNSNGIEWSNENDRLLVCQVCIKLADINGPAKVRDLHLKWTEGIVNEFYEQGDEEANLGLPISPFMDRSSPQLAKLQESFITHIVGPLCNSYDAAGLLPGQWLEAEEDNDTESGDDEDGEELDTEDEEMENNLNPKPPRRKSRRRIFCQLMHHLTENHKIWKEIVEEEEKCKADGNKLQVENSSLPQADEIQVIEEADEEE

Row | SMILES | clearance [1] | predicted maximal oral bioavailability (Fmax) [2] | EC50 (HeLa cells) | T/C (mean final tumor weight of treatment versus control) (IGR-37 xenograft) | T/C (mean final tumor weight of treatment versus control) (SK-MEL3 xenograft) | T/C (mean final tumor weight of treatment versus control) (A2058 xenograft) | T/C (mean tumor area of treatment versus control) (HeLa xenograft) | anti-tumor efficacy [3] | IC50 (human full length PDE3A) | response to cytotoxic effects (PDE3A-CRISPR A2058 cells; ectopic expression of GFP) | response to cytotoxic effects (PDE3A-CRISPR A2058 cells; ectopic expression of PDE3B) | response to cytotoxic effects (PDE3A-CRISPR A2058 cells; ectopic expression of PDE3B, listed as compound 1) | IC50 (HeLa) | IC50 (A549) | IC50 (IGR37) | IC50 (SKMEL3) | IC50 (human full length PDE3B)
1 | C[C@@H]1CC(=O)NN=C1c1ccc(N2CCOCC2)c(F)c1 [(5R)-6-[3-fluoro-4-(morpholin-4-yl)phenyl]-5-methyl-4,5-dihydropyridazin-3(2H)-one, reference compound] | 28.3 mL/min/kg | 49% | – | – | – | – | – | – | – | – | – | – | – | – | – | – | –
2 | C[C@@H]1CC(=O)NN=C1c1cc(F)c(N2CCOCC2)c(F)c1 [Compound 1, (5R)-6-[3,5-difluoro-4-(morpholin-4-yl)phenyl]-5-methyl-4,5-dihydropyridazin-3(2H)-one] | 12.8 mL/min/kg | 66% | 1.1 nM | 0.11b)* | 0.05b)* | 0.07b)* | 0.01a)* | potent anti-tumor efficacy | 5 nM and 4.6 nM | lack of response | re-sensitized | restores sensitivity | 0.852 nM | > 600 nM | 2.19 nM | 1.01 nM | –
3 | C[C@@H]1CC(=O)NN=C1c1cc(Cl)c(N2CCOCC2)c(Cl)c1 [Compound 2, 6-[3,5-dichloro-4-(morpholin-4-yl)phenyl]-5-methyl-4,5-dihydropyridazin-3(2H)-one] | – | – | 1.9 nM | – | – | – | – | – | 4 nM | – | – | – | – | – | – | – | 11 nM
